Assay results: patent US8748389B2, “Treating cancer” (Theryte Limited, priority 2004, dated 2014)
Where a SMILES comes first, the peptide text is derived from it.

Experiments:
[1] = test system: non-cancerous fibroblasts; experiment: Subsequent experiments testing cancerous and non-cancerous cell lines; format: cell-based
[2] = test system: short term primary culture of human fibroblasts; experiment: Experiment 2 further experiment, cells viewed under phase contrast microscopy; format: cell-based; details: for appearance of cells: 2.5 mM peptide, 2 days plus a further 7 days, FIG. 14; for cytotoxicity to cultured primary cultures of normal human cells: conclusion of Experiment 2
Method: In a further experiment, using a different batch of synthesized peptide, RT112 cells (a human bladder cancer cell line), HT29 cells (a human colon cancer cell line) and MGHU cells (a human bladder cancer cell line) were plated as described above. In parallel, a short term primary culture of human fibroblasts was plated in 48 well plates. After 24 h, the tissue culture medium was removed from each well and replaced with Hams F12 complete tissue culture medium (without foetal calf serum) supplemented with either 2.5 mM SEQ ID NO:1 or 2.5 mM SEQ ID NO:4. After culturing for 2 days, foetal calf serum was added to a concentration of 10%. The cells were then cultured for a further 7 days and viewed under phase contrast microscopy.
These peptides are not cytotoxic to cultured primary cultures of normal human cells.

MGHU-1 cells = experiment: % viability by visual observation under phase contrast microscopy, 48 well, Experiment 2 first experiment; format: cell-based, human
Method: (§1) In a first experiment, MGHU-1 cells (a human bladder cancer cell line), were plated in 48 well tissue culture dishes in 0.2 ml complete Hams F12 tissue culture medium supplemented with 10% foetal calf serum. SKMEL-2 cells (a human malignant melanoma cell line), HX34 cells (a human malignant melanoma cell line) and H441 cells (a human lung cancer cell line) were plated under identical conditions. The cells were incubated at 37° C. in an atmosphere of 5% CO2.
(§2) After 24 h, the culture medium was then removed from each well and replaced by Hams F12 complete tissue culture medium (without foetal calf serum). The culture medium added to each well was supplemented with a peptide having the sequence set out in SEQ ID NO:1, SEQ ID NO:2 or SEQ ID NO:3 at a concentration of either 0.5, 1.0 or 5.0 mM in such a way that each cell line was exposed to each peptide at each concentration.
(§3) The cells were then cultured for two days. Foetal calf serum was then added to a final concentration of 10%, and the cells were left for a further 5 days. The % viability of the cells in each well was calculated by visual observation under phase contrast microscopy. The effect of the peptides having the amino acid sequences set out in SEQ ID NO:1 and SEQ ID NO:3 on the viability of the SK MeI-2, MGHU-1, HX34 and H441 cell lines is shown in FIG. 12. […] Where the concentration of SEQ ID NO:1 was 1.0 mM, 100% of MGHU-1 cells were killed. The viability of the other cell lines was not affected.

H441 cells = experiment: as above; format: cell-based, human
Method: as §1, §2, §3

HX34 cells = experiment: as above; format: cell-based, human
Method: as §1, §2, §3

SKMEL-2 cells = experiment: as above; format: cell-based, human
Method: as §1, §2, §3

[3] = test system: Normal non-cancerous fibroblasts; experiment: Experiments 3 and 4, 96 well plates, viability by phase contrast microscopy; format: cell-based
Method: (§4) Normal non-cancerous fibroblasts and cancer cells were exposed to the linear hexamer PRGPRP SEQ ID NO: 5 in 96 micro well plates using the same protocol as for SEQ. ID NO: 1 as previously described. The percent viability of the cells in each well was calculated by visual observation under phase contrast microscopy as previously described.
(§5) In order to define structure/function relationships different peptides were constructed SEQ ID NOS 5-16. Normal non-cancerous fibroblasts and cancer cells were exposed to 5 mM of these peptides in 96 well plates as previously described. The sequence of these peptides is listed below. Results were scored at 21 days.

cancer cells = experiment: as above; format: cell-based; details: summary statement
Method: as §4, §5

[4] = test system: MGHU-1 bladder cancer cells; experiment: Experiment 6, cell growth by daily phase-contrast microscopy, 96 well plates; format: cell-based, human
Method: (§6) Cancer cells and non-cancerous fibroblasts were separately seeded at 10^2 to 10^4 cells in 200 μl of Hams F12 tissue culture medium plus 10% fetal calf serum in 96 well plates and exposed to varying concentrations of a peptide having an amino acid sequence set out in SEQ ID NO: 17 ranging from 5.0 μM to 100 μM. Cell growth was studied by daily phase-contrast microscopy over 25 days.

[5] = test system: normal non cancerous fibroblasts; experiment: as above; format: cell-based
Method: as §6

[6] = visual observation of cell density and viability
[7] = any concentration (0.5, 1.0 or 5.0 mM), day 7

CC(C)[C@H](NC(=O)[C@@H]1CCCN1C(=O)[C@H](CCCNC(=N)N)NC(=O)[C@@H]1CCCN1C(=O)CNC(=O)[C@H](CCCNC(=N)N)NC(=O)[C@@H]1CCCN1C(=O)[C@@H]1CCCN1C(=O)[C@@H](N)Cc1ccccc1)C(=O)N[C@@H](CCC(N)=O)C(=O)O [SEQ ID NO:1] (H-FPPRGPRPVQ-OH; N-terminus and C-terminus assumed)
cell killing ([1]; between days 20 and 25): specific killing of cancerous cells and not non-cancerous fibroblasts
cell killing ([1]; within the first seven days, cells then recovered): non specific killing
appearance of cells [2]: appear to be healthy
cytotoxicity to cultured primary cultures of normal human cells [2]: not cytotoxic

CC(C)[C@H](NC(=O)[C@@H]1CCCN1C(=O)[C@H](CCCNC(=N)N)NC(=O)[C@@H](NC(=O)CNC(=O)[C@H](CCCNC(=N)N)NC(=O)[C@@H]1CCCN1C(=O)[C@@H](NC(=O)[C@@H](N)Cc1ccccc1)[C@@H](C)O)[C@@H](C)O)C(=O)N[C@@H](CCC(N)=O)C(=O)O [SEQ ID NO:2] (H-FTPRGTRPVQ-OH; N-terminus and C-terminus assumed)
cytotoxicity (MGHU-1 cells; [6]): cytotoxic
cytotoxicity compared with SEQ ID NO:1 (MGHU-1 cells; [6]): less cytotoxic
cytotoxicity (H441 cells; [6]): cytotoxic
cytotoxicity compared with SEQ ID NO:1 (H441 cells; [6]): less cytotoxic
cytotoxicity (HX34 cells; [6]): cytotoxic
cytotoxicity compared with SEQ ID NO:1 (HX34 cells; [6]): less cytotoxic
cytotoxicity (SKMEL-2 cells; [6]): cytotoxic
cytotoxicity compared with SEQ ID NO:1 (SKMEL-2 cells; [6]): less cytotoxic
cytotoxicity to cultured primary cultures of normal human cells [2]: not cytotoxic

CC(C)[C@H](NC(=O)[C@H](CCCNC(=N)N)NC(=O)[C@H](Cc1ccccc1)NC(=O)[C@@H]1CCCN1C(=O)CNC(=O)[C@@H]1CCCN1)C(=O)N1CCC[C@H]1C(=O)N[C@@H](CCC(N)=O)C(=O)N1CCC[C@H]1C(=O)N[C@@H](CCCNC(=N)N)C(=O)O [SEQ ID NO:4, reference compound] (H-PGPFRVPQPR-OH)
appearance of cells [2]: appear to be healthy

N=C(N)NCCC[C@H](NC(=O)[C@@H]1CCCN1)C(=O)NCC(=O)N1CCC[C@H]1C(=O)N[C@@H](CCCNC(=N)N)C(=O)N1CCC[C@H]1C(=O)O [SEQ ID NO: 5, PRGPRP] (H-PRGPRP-OH)
state of fibroblasts ([3]; 21 days and beyond): remained healthy
growth of non-cancerous cells tested ([3]; summary statement): non-inhibitory
cytotoxicity to cancer cells tested (cancer cells): cytotoxic

ATTEGTETVQ [SEQ ID NO:3, reference compound]
viability (MGHU-1 cells; [7]): did not affect viability
viability (H441 cells; [7]): did not affect viability
viability (HX34 cells; [7]): did not affect viability
viability (SKMEL-2 cells; [7]): did not affect viability

cyclo-[PRGPRPVPRGPRPVPRGPRPV] (cyclic) [SEQ ID NO: 17]
cell morphology ([4]; after 20 days exposure, FIG. 19): marked loss of normal cell morphology
cell morphology of cancerous cells ([4]; no complete detachment of dead cells from the plastic surface): loss of clear cell morphology
stimulation of fibroblasts ([5]; 10 days exposure, 10 μM, FIG. 18): marked non-cancerous fibroblast stimulation
stimulation of fibroblasts ([5]; between 5 and 10 days after exposure, 5.0 μM to 100 μM): Marked stimulation
